Here are results for 15 molecules from paper PMC8159111 (Pathogens, 2021).

For series [1], the system named is SARS-CoV-2 "NRC-03-nhCoV" virus. Briefly: Inhibitory concentration 50 (IC50) determination, reduction of virus-induced cytopathic effect in Vero-E6 cells. It is filed as cell-based. The note with it: for Selectivity Index (CC50/IC50): CC50 on Vero E6 / IC50 against NRC-03-nhCoV; for IC50: Severe acute respiratory syndrome coronavirus 2, Vero C1008, 72 h, unit not given in Table 4 and Figure 6, Figure 4 and text print μM. The method, then: The IC50 values for the tested compounds were determined as previously described, with minor modifications. Briefly, in 96-well tissue culture plates, 2.4 × 10^4 Vero-E6 cells were distributed in each well and incubated overnight at a humidified 37°C incubator under 5% CO2 condition. The cell monolayers were then washed once with 1× PBS. An aliquot of the SARS-CoV-2 “NRC-03-nhCoV” virus containing 100 TCID50 was incubated with serial diluted compounds and kept at 37 °C for 1 h. The Vero-E6 cells were treated with virus/compound mix and co-incubated at 37 °C in a total volume of 200 µL per well. Untreated cells infected with virus represented the virus control; however, cells that were not treated and not infected were the cell control. Following incubation at 37 °C in 5% CO2 incubator for 72 h, the cells were fixed with 100 μL of 10% paraformaldehyde for 20 min and stained with 0.5% crystal violet in distilled water for 15 min at RT. The crystal violet dye was then dissolved using 100 μL of absolute methanol per well and the optical density of the color was measured at 570 nm using the Anthos Zenyth 200 rt plate reader (Anthos Labtec Instruments, Heerhugowaard, the Netherlands).
On the technique in general: Protection from cytopathic effect is a common read-out in antiviral testing.

A short description of series [2]: Cytotoxicity (CC50) determination, crystal violet assay. It is filed as cell-based. The settings on record: African green monkey, Vero E6 cells, Table 4 prints no unit, Figure 4 prints μM, read-out: CC50 (half-maximal cytotoxic concentration). The method, then:
To assess the half maximal cytotoxic concentration (CC50), stock solutions of the test compounds were prepared in 10% DMSO in ddH2O and diluted further to the working solutions with DMEM. The cytotoxic activity of the extracts was tested in VERO-E6 cells by using crystal violet assay as previously described with minor modifications. Briefly, the cells were seeded in 96-well plates (100 µL/well at a density of 3 × 10^5 cells/mL) and incubated for 24 h at 37 °C in a humidified 5% CO2 incubator. After 24 h, cells were treated with various concentrations of the tested compounds in triplicates. Seventy two hours later, the supernatant was discarded, and cell monolayers were fixed with 10% formaldehyde for 1 h at room temperature (RT). The fixed monolayers were then dried and stained with 50 µL of 0.1% crystal violet for 20 min on a bench rocker at RT. The monolayers were then washed, dried and the crystal violet dye in each well was then dissolved with 200 µL of methanol for 20 min on a bench rocker at RT. The absorbance of crystal violet solutions was measured at λmax 570 nm as a reference wavelength using a multi-well plate reader.

[3] abbreviates: against NRC-03-nhCoV in Vero E6, 72 h, CPE reduction, crystal violet, read-out: IC50 (half-maximal inhibitory concentration).

The structures appear in SMILES notation. Like-named read-outs stand apart in the source and are kept apart here.

Consider `CC1(C)CC[C@]2(C(=O)O)CC[C@]3(C)C(=CC[C@@H]4[C@@]5(C)CC[C@H](O)C(C)(C)[C@@H]5CC[C@]43C)[C@@H]2C1` [Compound 1, Oleanolic acid], for which, in series [1], the “Selectivity Index (CC50/IC50)” value came out at 0.39. In addition, the IC50 in series [1] (setting [3]) was 476 µM. Further, the CC50 at 72 h in series [2] is 190 µM.
In the case of `CC1(C)CC[C@]2(C(=O)O)CC[C@]3(C)C(=CC[C@@H]4[C@@]5(C)C[C@@H](O)[C@H](O)C(C)(C)[C@@H]5CC[C@]43C)[C@@H]2C1` [Compound 2, Maslinic acid], in series [1], the “Selectivity Index (CC50/IC50)” value stood at 0.97. The IC50 in series [1] (setting [3]) turned out to be 99.9 µM. Besides, in series [2], the CC50 at 72 h came to 97.3 µM.
The matching figures for `C#CCOC(=O)[C@]12CCC(C)(C)CC1C1=CCC3[C@@]4(C)CC[C@H](O)C(C)(C)C4CC[C@@]3(C)[C@]1(C)CC2` (stereo partly drawn) [Compound 3, Propargyl-(3β)-3-hydroxyolean-12-en-28-oate]: 2.32, 42 µM and 97.4 µM.
For `C#CCOC(=O)[C@]12CCC(C)(C)CC1C1=CCC3[C@@]4(C)C[C@@H](O)[C@H](O)C(C)(C)C4CC[C@@]3(C)[C@]1(C)CC2` (stereo partly drawn) [Compound 4, Propargyl-(2α,3β)-2,3-dihydroxyolean-12-en-28-oate], the “Selectivity Index (CC50/IC50)” value in series [1] is given as 0.67. For the same molecule, the IC50 in series [1] (setting [3]) was found to be 236 µM. In addition, the CC50 at 72 h in series [2] stood at 157 µM.
Turning to `C#CCOC(=O)C12CCC(C)(C)CC1C1=CCC3C4(C)CC(OCC#C)C(O)C(C)(C)C4CCC3(C)C1(C)CC2` (stereo not drawn) [Compound 5, Propargyl-(2α)-2-(propargyloxy)-(3β)-3-hydroxy-olean-12-en-28-oate], the “Selectivity Index (CC50/IC50)” value in series [1] amounted to 1.06. Besides, the IC50 in series [1] (setting [3]) was found to be 85.2 µM. For the same molecule, the CC50 at 72 h in series [2] was 90.6 µM.
Take `C#CCOC(=O)C12CCC(C)(C)CC1C1=CCC3C4(C)CC(O)C(OCC#C)C(C)(C)C4CCC3(C)C1(C)CC2` (stereo not drawn) [Compound 6, Propargyl-(3α)-3-(propargyloxy)-(2β)-2-hydroxy-olean-12-en-28-oate]: the “Selectivity Index (CC50/IC50)” value in series [1] was determined as 1.55. In addition, the IC50 in series [1] (setting [3]) is 135 µM. Also, the CC50 at 72 h in series [2] came to 209 µM.
For `C#CCOC(=O)C12CCC(C)(C)CC1C1=CCC3C4(C)CC(OCC#C)C(OCC#C)C(C)(C)C4CCC3(C)C1(C)CC2` (stereo not drawn) [Compound 7, Propargyl-(2α,3β)-2,3-bis(propargyloxy)-olean-12-en-28-oate], in series [1], the “Selectivity Index (CC50/IC50)” value came out at 0.90. Besides, the IC50 in series [1] (setting [3]) is 108 µM. The CC50 at 72 h in series [2] came out at 97.4 µM.
Turning to `Cc1cccc(-n2nncc2COC(=O)C23CCC(C)(C)CC2C2=CCC4C5(C)CCC(O)C(C)(C)C5CCC4(C)C2(C)CC3)c1` (stereo not drawn) [Compound 8, (1-(3-methylphenyl)-1H-1,2,3-triazol-5-yl)methyl-(3β)-3-hydroxyolean-12-en-28-oate], in series [1], the “Selectivity Index (CC50/IC50)” value is reported as 0.98. Also, in series [1] (setting [3]), the IC50 was found to be 174 µM. Further, the CC50 at 72 h in series [2] was 170 µM.
In the case of `Cc1cccc(-n2cc(COC(=O)C34CCC(C)(C)CC3C3=CCC5C6(C)CCC(O)C(C)(C)C6CCC5(C)C3(C)CC4)nn2)c1` (stereo not drawn) [Compound 10, (1-(3-methylphenyl)-1H-1,2,3-triazol-4-yl)methyl-(3β)-3-hydroxyolean-12-en-28-oate], in series [1], the “Selectivity Index (CC50/IC50)” value came out at 3.68. For the same molecule, the IC50 in series [1] (setting [3]) turned out to be 75.3 µM. In addition, the CC50 at 72 h in series [2] was 277 µM.
Regarding `CC1(C)CCC2(C(=O)OCc3cn(-c4ccccc4)nn3)CCC3(C)C(=CCC4C5(C)CC(O)C(O)C(C)(C)C5CCC43C)C2C1` (stereo not drawn) [Compound 11, (1-Phenyl-1H-1,2,3-triazol-4-yl)methyl-(2α,3β)-2,3-dihydroxyolean-12-en-28-oate], in series [1], the “Selectivity Index (CC50/IC50)” value is given as 1.62. Besides, the IC50 in series [1] (setting [3]) was 135 µM. Also, the CC50 at 72 h in series [2] was 218 µM.
Take `CC1(C)CC[C@]2(C(=O)OCc3cn(-c4ccc(Cl)cc4)nn3)CC[C@]3(C)C(=CCC4[C@@]5(C)C[C@@H](OCc6cn(-c7ccc(Cl)cc7)nn6)[C@H](O)C(C)(C)C5CC[C@]43C)C2C1` (stereo partly drawn) [Compound 12, (1-(4-Chlorophenyl)-1H-1,2,3-triazol-4-yl)methyl-(2α,3β)-2-((1-(4-chlorophenyl)-1H-1,2,3-triazol-4-yl)methoxy)-3-hydroxyolean-12-en-28-oate]: the “Selectivity Index (CC50/IC50)” value in series [1] is 4.42. The CC50 at 72 h in series [2] was 514 µM.
Regarding `COc1ccc(-n2cc(COC(=O)[C@]34CCC(C)(C)CC3C3=CCC5[C@@]6(C)C[C@@H](O)[C@H](OCc7cn(-c8ccc(OC)cc8)nn7)C(C)(C)C6CC[C@@]5(C)[C@]3(C)CC4)nn2)cc1` (stereo partly drawn) [Compound 13, (1-(4-Methoxyphenyl)-1H-1,2,3-triazol-4-yl)methyl-(2α,3β)-2-hydroxy-3-((1-(4-methoxyphenyl)-1H-1,2,3-triazol-4-yl)methoxy)-olean-12-en-28-oate], in series [1], the “Selectivity Index (CC50/IC50)” value came out at 2.24. Besides, the CC50 at 72 h in series [2] turned out to be 356 µM.
Take `COc1ccc(-n2cc(COC(=O)[C@]34CCC(C)(C)CC3C3=CCC5[C@@]6(C)C[C@@H](OCc7cn(-c8ccc(OC)cc8)nn7)[C@H](OCc7cn(-c8ccc(OC)cc8)nn7)C(C)(C)C6CC[C@@]5(C)[C@]3(C)CC4)nn2)cc1` (stereo partly drawn) [Compound 14, (1-(4-Methoxyphenyl)-1H-1,2,3-triazol-4-yl)methyl-(2α,3β)-2,3-bis((1-(4-methoxyphenyl)-1H-1,2,3-triazol-4-yl)methoxy)-olean-12-en-28-oate]: in series [1], the “Selectivity Index (CC50/IC50)” value was determined as 2.96. In addition, in series [2], the CC50 at 72 h was determined as 405 µM.
Turning to `COc1ccc(-c2cc(COC(=O)C34CCC(C)(C)CC3C3=CCC5C6(C)CCC(O)C(C)(C)C6CCC5(C)C3(C)CC4)on2)cc1` (stereo not drawn) [Compound 15, (3-(4-methoxyphenyl)isoxazol-5-yl) methyl-(3β)-3-hydroxyolean-12-en-28-oate], in series [1] (setting [3]), the IC50 was found to be 523 µM.
With `COc1ccc(-c2cc(COC(=O)C34CCC(C)(C)CC3C3=CCC5C6(C)CC(O)C(O)C(C)(C)C6CCC5(C)C3(C)CC4)on2)cc1` (stereo not drawn) [Compound 16, (3-(4-methoxyphenyl)isoxazol-5-yl) methyl-(2α,3β)-2,3-dihydroxyolean-12-en-28-oate], in series [1], the “Selectivity Index (CC50/IC50)” value came out at 1.48. For the same molecule, the IC50 in series [1] (read-out: IC50 (half-maximal inhibitory concentration), against NRC-03-nhCoV in Vero E6, 72 h, CPE reduction, crystal violet) stood at 219 µM. In series [2], the CC50 at 72 h worked out at 324 µM.
